From patent US20260092073A1, “NOVEL COMPOUNDS” (Hoffmann-La Roche Inc., priority 2023, published 2026)
pIC50: −log10 of the molar value.

What was measured:
NLRP3 [1] = molecular target: T1, NLRP3 (Homo sapiens, UniProt Q96P20); experiment: THP-1 cells pyroptosis assay; format: cell-based; design: Seed THP-1 cells (25,000 cells/well) containing 1.0 μg/ml LPS; host or cells: THP-1 cells, LPS-primed, nigericin-stimulated; conditions: LPS 1.0 μg/ml, nigericin 5 μM, resazurin readout
Description: It is well established that the activation of NLRP3 leads to cell pyroptosis and this feature plays an important part in the manifestation of clinical disease (Yan-gang Liu et al., Cell Death & Disease, 2017, 8(2), e2579; Alexander Wree et al., Hepatology, 2014, 59(3), 898-910; Alex Baldwin et al., Journal of Medicinal Chemistry, 2016, 59(5), 1691-1710; Ema Ozaki et al., Journal of Inflammation Research, 2015, 8, 15-27; Zhen Xie & Gang Zhao, Neuroimmunology Neuroinflammation, 2014, 1(2), 60-65; Mattia Cocco et al., Journal of Medicinal Chemistry, 2014, 57(24), 10366-10382; T. Satoh et al., Cell Death & Disease, 2013, 4, e644). Therefore, it is anticipated that inhibitors of NLRP3 will block pyroptosis, as well as the release of pro-inflammatory cytokines (e.g. […]) from the cell.
THP-1 cells (ATCC #TIB-202) were grown in RPMI containing L-glutamine (Gibco #11835) supplemented with 1 mM sodium pyruvate (Sigma #S8636) and penicillin (100 units/ml)/streptomycin (0.1 mg/ml) (Sigma #P4333) in 10% Fetal Bovine Serum (FBS) (Sigma #F0804). The cells were routinely passaged and grown to confluency (˜10^6 cells/ml). On the day of the experiment, THP-1 cells were harvested and resuspended into RPMI medium (without FBS). The cells were then counted and viability (>90%) checked by Trypan blue (Sigma #T8154). Appropriate dilutions were made to give a concentration of 625,000 cells/ml. To this diluted cell solution was added LPS (Sigma #L4524) to give a […] Final Assay Concentration (FAC). 40 μl of the final preparation was aliquoted into each well of a 96-well plate. The plate thus prepared was used for compound screening.
The following method step-by-step assay was followed for compound screening.
Seed THP-1 cells (25,000 cells/well) containing 1.0 μg/ml LPS in 40 μl of RPMI medium (without FBS) in 96-well, black walled, clear bottom cell culture plates coated with poly-D-lysine (VWR #734-0317)
Add 5 μl compound (8 points half-log dilution, with 10 μM top dose) or vehicle (DMSO 0.1% FAC) to the appropriate wells
(§1) Incubate for 3 hours at 37° C., 5% CO2
Add 5 μl nigericin (Sigma #N7143) (FAC 5 μM) to all wells
(§2) Incubate for 1 hr at 37° C., 5% CO2
At the end of the incubation period, spin plates at 300 xg for 3 mins and remove supernatant
Then add 50 μl of resazurin (Sigma #R7017) (FAC 100 μM resazurin in RPMI medium without FBS) and incubate plates for a further 1-2 hours at 37° C. and 5% CO2
Plates were read in an Envision reader at Ex 560 nm and Em 590 nm
(§3) IC50 data is fitted to a non-linear regression equation (log inhibitor vs response-variable slope 4-parameters)

NLRP3 [2] = molecular target: T1, NLRP3; experiment: Human whole blood IL-1β release assay; format: cell-based; design: Human whole blood in Li-heparin tubes was obtained from healthy donors; from tissue; host or cells: human whole blood from healthy donors; conditions: LPS, nigericin 10 μM, IL-1β by AlphaLisa
Procedure: For systemic delivery, the ability to inhibit NLRP3 when the compounds are present within the bloodstream is of great importance. For this reason, the NLRP3 inhibitory activity of a number of compounds in human whole blood was investigated in accordance with the following protocol.
Human whole blood in Li-heparin tubes was obtained from healthy donors from a volunteer donor panel.
Plate out 80 μl of whole blood containing […] of LPS in 96-well, clear bottom cell culture plate (Corning #3585)
Add 10 μl compound (8 points half-log dilution with 10 μM top dose) or vehicle (DMSO 0.1% FAC) to the appropriate wells
as §1
Add 10 μl nigericin (Sigma #N7143) (10 μM FAC) to all wells
as §2
At the end of the incubation period, spin plates at 300 xg for 5 mins to pellet cells and remove 20 μl of supernatant and add to 96-well v-bottom plates for IL-1β analysis (note: these plates containing the supernatants can be stored at −80° C. to be analysed at a later date)
IL-1β was measured according to the manufacturer protocol (Perkin Elmer-AlphaLisa IL-1 Kit AL220F-5000)
as §3

[3] = molecular target: T2, hERG cardiac potassium channel (Homo sapiens, UniProt Q12809); experiment: hERG screening assay (automated patch clamp, CHO-hERG cells); format: cell-based; conditions: CHO crelox hERG cells (CHO cells that express hERG), whole-cell patch clamp, 35-37° C.
T2 construct: Evotec (cryopreserved) ATCC PTA-6812; host or cells: CHO crelox hERG cell line (Chinese hamster)
T2 sequence (Q12809 whole entry): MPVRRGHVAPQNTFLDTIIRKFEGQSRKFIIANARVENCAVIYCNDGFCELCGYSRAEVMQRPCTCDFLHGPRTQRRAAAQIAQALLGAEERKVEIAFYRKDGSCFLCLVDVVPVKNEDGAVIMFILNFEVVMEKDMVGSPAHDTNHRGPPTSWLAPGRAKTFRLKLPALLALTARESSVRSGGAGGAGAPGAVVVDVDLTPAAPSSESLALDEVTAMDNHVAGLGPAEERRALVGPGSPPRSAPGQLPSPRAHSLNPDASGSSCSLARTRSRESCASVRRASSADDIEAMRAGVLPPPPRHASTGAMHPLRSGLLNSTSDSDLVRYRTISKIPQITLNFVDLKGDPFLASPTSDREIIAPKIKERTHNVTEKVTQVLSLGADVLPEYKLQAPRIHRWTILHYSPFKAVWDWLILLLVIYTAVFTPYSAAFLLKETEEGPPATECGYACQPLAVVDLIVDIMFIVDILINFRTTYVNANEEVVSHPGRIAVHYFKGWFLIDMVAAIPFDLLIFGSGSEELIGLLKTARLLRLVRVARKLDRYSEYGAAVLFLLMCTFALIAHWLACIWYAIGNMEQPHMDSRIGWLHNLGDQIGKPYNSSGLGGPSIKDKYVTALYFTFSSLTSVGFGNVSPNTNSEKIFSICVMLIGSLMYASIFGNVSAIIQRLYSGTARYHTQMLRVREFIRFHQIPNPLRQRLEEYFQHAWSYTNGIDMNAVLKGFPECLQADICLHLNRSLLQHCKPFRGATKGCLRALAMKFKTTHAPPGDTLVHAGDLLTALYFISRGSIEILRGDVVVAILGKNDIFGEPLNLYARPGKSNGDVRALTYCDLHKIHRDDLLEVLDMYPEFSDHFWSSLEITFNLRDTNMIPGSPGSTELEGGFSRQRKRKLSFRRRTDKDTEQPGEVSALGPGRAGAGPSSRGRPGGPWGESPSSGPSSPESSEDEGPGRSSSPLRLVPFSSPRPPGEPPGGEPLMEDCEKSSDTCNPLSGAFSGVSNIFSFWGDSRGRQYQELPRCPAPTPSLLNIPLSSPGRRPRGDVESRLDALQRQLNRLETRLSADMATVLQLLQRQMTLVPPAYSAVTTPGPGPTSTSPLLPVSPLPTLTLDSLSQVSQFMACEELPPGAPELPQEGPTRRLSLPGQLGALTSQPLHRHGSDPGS
Description: In the drug development process of small molecules, one of the most frequent adverse side effects, leading to the failure of drugs, is the cardiac arrhythmias. Such failure is often related to the capacity of the drug to inhibit the human ether-à-go-go-related gene (hERG) cardiac potassium channel. Having no or low inhibition of the hERG cardiac potassium channel is therefore considered as beneficial.
The CHO crelox hERG cell line (ATCC reference Nr. PTA-6812, female Chinese hamster cells) was generated and validated at Roche. Ready-to-use frozen instant CHO-hERG cells were cryopreserved at Evotec (Germany) and used directly in the experiments.
The extracellular solution contains (in mM): NaCl 150; KCl 4; CaCl2 1; MgCl2 1; HEPES 10; pH 7.2-7.4 with NaOH, osmolarity 290-330 mOsm. The internal solution contains (in mM): KCl, 10; KF, 100; NaCl, 10; HEPES, 10; EGTA, 20; pH=7.0-7.4 with KOH, osmolarity 260-300 mOsm.
The effects of a compound on hERG K+-currents parameters will be evaluated at 2 concentrations in at least 4 cells.
The hERG test is performed using automated patch clamp system SynchroPatch® 384 (Nanion Technologies GmbH, Germany). K+ currents are measured with the patch-voltage-clamp technique in the whole-cell configuration at 35-37° C.
The amplitudes of IKhERG were recorded in each concentration of drug and they were compared to the vehicle control values (taken as 100%) to define fractional blocks. The concentration-response data were fitted with the following relationship:
Concentration-response curves were fitted by non-linear regression analysis using EworkBook suite (ID Business Solutions Ltd, UK). Data fit was done with the 4 Parameter Logistic Model (fit=(A+(B/(1+((x/C)^D)))), where A=0 and B=100).

human P-gp = molecular target: T3, human P-gp (Homo sapiens, UniProt P08183); experiment: Transcellular human P-gp assay (transfected LLC-PK1 cells); format: in vitro ADME; conditions: LLC-PK1 cells over-expressing human P-gp
T3 construct: expressed in transfected cells; host or cells: LLC-PK1 (porcine kidney epithelial cells)
T3 sequence (P08183 whole entry): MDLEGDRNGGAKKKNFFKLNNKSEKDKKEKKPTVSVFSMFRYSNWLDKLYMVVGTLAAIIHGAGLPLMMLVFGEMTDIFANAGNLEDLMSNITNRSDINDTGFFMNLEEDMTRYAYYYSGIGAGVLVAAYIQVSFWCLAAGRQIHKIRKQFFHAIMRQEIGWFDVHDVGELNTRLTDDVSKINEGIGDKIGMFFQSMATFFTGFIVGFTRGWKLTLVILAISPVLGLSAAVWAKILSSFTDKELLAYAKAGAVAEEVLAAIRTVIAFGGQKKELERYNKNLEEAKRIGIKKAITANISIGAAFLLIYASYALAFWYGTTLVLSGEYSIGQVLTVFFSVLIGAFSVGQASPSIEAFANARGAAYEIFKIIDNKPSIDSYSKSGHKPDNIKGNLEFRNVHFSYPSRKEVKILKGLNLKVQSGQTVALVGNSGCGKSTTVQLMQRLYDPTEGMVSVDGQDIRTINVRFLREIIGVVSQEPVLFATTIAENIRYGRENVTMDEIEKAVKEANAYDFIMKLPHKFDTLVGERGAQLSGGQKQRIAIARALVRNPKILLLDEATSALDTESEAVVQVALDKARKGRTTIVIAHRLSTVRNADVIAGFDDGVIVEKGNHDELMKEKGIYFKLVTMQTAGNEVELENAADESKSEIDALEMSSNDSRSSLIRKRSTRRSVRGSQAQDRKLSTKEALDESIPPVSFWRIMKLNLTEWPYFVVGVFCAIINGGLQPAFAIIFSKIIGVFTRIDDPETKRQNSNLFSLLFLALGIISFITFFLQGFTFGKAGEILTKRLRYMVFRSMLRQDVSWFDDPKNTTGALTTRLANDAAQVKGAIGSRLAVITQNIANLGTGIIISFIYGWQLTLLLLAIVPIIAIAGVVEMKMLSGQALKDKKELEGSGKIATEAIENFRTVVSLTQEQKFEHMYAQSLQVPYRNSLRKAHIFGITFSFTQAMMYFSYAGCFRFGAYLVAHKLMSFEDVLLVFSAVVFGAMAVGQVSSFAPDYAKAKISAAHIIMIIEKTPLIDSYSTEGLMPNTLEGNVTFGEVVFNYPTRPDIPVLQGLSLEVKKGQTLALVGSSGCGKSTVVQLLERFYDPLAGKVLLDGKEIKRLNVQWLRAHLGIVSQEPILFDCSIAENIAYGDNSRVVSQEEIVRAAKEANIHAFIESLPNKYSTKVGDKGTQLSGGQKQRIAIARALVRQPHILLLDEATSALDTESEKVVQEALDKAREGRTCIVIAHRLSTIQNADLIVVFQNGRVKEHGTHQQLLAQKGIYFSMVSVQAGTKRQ
Description: The general assay uses transfected LLC-PK1 cells (porcine kidney epithelial cells) over-expressing human or mouse P-gp, cultured on 96 well semi-permeable filter membrane plates, where they form a polarized monolayer with tight junctions, and act as a barrier between the apical and basolateral compartment.
P-gp is expressed in the apical-facing membrane of the monolayer. […] J. Pharmacol. Exp Ther., 2021, 376, 322-329.

T1 sequence (Q96P20 whole entry): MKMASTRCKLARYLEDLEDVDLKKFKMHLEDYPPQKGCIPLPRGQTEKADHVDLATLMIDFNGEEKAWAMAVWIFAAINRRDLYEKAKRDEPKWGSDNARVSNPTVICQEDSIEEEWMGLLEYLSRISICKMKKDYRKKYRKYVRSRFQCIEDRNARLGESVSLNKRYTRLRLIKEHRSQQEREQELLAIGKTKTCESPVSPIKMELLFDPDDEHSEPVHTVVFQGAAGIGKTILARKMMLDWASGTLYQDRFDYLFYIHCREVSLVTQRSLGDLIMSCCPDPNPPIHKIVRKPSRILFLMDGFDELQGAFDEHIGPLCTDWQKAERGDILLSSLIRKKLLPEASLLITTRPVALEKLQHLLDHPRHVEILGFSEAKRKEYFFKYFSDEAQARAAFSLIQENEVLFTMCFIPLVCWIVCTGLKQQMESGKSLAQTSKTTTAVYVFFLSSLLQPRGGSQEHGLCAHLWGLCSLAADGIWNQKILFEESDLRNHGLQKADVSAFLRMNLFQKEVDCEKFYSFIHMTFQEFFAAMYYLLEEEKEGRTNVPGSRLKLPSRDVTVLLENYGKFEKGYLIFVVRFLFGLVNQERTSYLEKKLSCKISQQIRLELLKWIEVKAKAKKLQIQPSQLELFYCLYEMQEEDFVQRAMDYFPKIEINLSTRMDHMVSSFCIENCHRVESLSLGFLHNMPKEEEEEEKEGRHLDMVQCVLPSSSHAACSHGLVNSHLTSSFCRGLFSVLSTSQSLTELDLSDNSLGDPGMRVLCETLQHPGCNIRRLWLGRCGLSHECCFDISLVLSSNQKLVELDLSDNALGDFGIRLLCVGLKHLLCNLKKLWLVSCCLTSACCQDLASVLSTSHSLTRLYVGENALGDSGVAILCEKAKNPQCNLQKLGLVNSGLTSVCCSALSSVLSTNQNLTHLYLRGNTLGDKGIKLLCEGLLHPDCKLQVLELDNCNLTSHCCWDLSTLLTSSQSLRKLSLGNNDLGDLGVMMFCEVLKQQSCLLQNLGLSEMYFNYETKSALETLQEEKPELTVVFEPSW

For `COCc1cc2c(c(O)c1-c1ccc3oc(N[C@@H]4CCCN(CCO)C4)nc3n1)CCO2` [Example 12, 5-[2-[[(3R)-1-(2-Hydroxyethyl)-3-piperidyl]amino]oxazolo[4,5-b]pyridin-5-yl]-6-(methoxymethyl)-2,3-dihydrobenzofuran-4-ol], the pIC50 (NLRP3 [1]) was 8.10, the pIC50 (NLRP3 [2]) was 7.82 and the IC20 [3] was > 10 µM.
For `COCc1cc(C#N)cc(O)c1-c1cnc2oc(N[C@@H]3CCCN(CCO)C3)nc2n1` [Example 15, 3-Hydroxy-4-[2-[[(3R)-1-(2-hydroxyethyl)-3-piperidyl]amino]oxazolo[4,5-b]pyrazin-5-yl]-5-(methoxymethyl)benzonitrile;2,2,2-trifluoroacetic Acid], the pIC50 (NLRP3 [1]) was 7.47, the pIC50 (NLRP3 [2]) was 7.48 and the IC20 [3] was > 10 µM.
`Cc1cc2c(c(O)c1-c1ccc3oc(N[C@@H]4CCCN(CCO)C4)nc3n1)CCO2` [Example 14, 5-[2-[[(3R)-1-(2-Hydroxyethyl)-3-piperidyl]amino]oxazolo[4,5-b]pyridin-5-yl]-6-methyl-2,3-dihydrobenzofuran-4-ol] showed an efflux ratio (human P-gp; read-out: ER (efflux ratio)) of 4, a Papp (human P-gp; read-out: Permeability) of 13.5 ×10⁻⁶ cm/s and a pIC50 (NLRP3 [1]) of 9.22. For the same compound, the pIC50 (NLRP3 [2]) was 7.66.
`Cc1cc(C(F)(F)F)cc(O)c1-c1ccc2oc(N[C@@H]3C[C@H](O)CN(CCO)C3)nc2n1` [Example 6, (3S,5R)-1-(2-Hydroxyethyl)-5-[[5-[2-hydroxy-6-methyl-4-(trifluoromethyl)phenyl]oxazolo[4,5-b]pyridin-2-yl]amino]piperidin-3-ol] showed a pIC50 (NLRP3 [1]) of 7.92 and a pIC50 (NLRP3 [2]) of 7.02.
`Cc1cc2c(c(O)c1-c1cnc3oc(N[C@@H]4CCCN(CCO)C4)nc3n1)CCC2` [Example 18, 5-[2-[[(3R)-1-(2-Hydroxyethyl)-3-piperidyl]amino]oxazolo[4,5-b]pyrazin-5-yl]-6-methyl-indan-4-ol] showed a pIC50 (NLRP3 [1]) of 8.70 and an IC20 [3] of 6.3 µM.
With `CCN1C[C@@H](O)C[C@@H](Nc2nc3nc(-c4c(C)cc(C#N)cc4O)cc(OC)c3o2)C1` [Example 30, 4-[2-[[(3R,5S)-1-Ethyl-5-hydroxy-3-piperidyl]amino]-7-methoxy-oxazolo[4,5-b]pyridin-5-yl]-3-hydroxy-5-methyl-benzonitrile] the pIC50 (NLRP3 [1]) was 7.89 and the pIC50 (NLRP3 [2]) was 7.32.
`COCc1cc(C#N)cc(O)c1-c1cc(OC)c2oc(N[C@@H]3CCCN(CCO)C3)nc2n1` [Example 20, 3-Hydroxy-4-[2-[[(3R)-1-(2-hydroxyethyl)-3-piperidyl]amino]-7-methoxy-oxazolo[4,5-b]pyridin-5-yl]-5-(methoxymethyl)benzonitrile] was tested, and the pIC50 (NLRP3 [1]) was 7.12 and the pIC50 (NLRP3 [2]) was 7.17.
`COc1cc(-c2c(C)cc(C#N)cc2O)nc2nc(N[C@@H]3CCCN(CCO)C3)oc12` [Example 8, 3-Hydroxy-4-[2-[[(3R)-1-(2-hydroxyethyl)-3-piperidyl]amino]-7-methoxy-oxazolo[4,5-b]pyridin-5-yl]-5-methyl-benzonitrile;2,2,2-trifluoroacetic Acid] was tested, and the pIC50 (NLRP3 [1]) was 7.96 and the pIC50 (NLRP3 [2]) was 7.55.
`CCN1C[C@@H](O)C[C@@H](Nc2nc3nc(-c4c(O)cc(C#N)cc4COC)cnc3o2)C1` [Example 23, 4-[2-[[(3R,5S)-1-Ethyl-5-hydroxy-3-piperidyl]amino]oxazolo[4,5-b]pyrazin-5-yl]-3-hydroxy-5-(methoxymethyl)benzonitrile;2,2,2-trifluoroacetic Acid] was tested, and the pIC50 (NLRP3 [1]) was 7.36 and the pIC50 (NLRP3 [2]) was 7.47.
